Article PMC9913174, “Potent Inhibition of Macropinocytosis by Niclosamide in Cancer Cells: A Novel Mechanism for the Anticancer Efficacy for the Antihelminthic” (Cancers, 2023)

Molecular target: SLC38A5 (Homo sapiens, UniProt Q8WUX1)
Assay: inhibition of Li+-stimulated [3H]-serine uptake in HPAF-II and TXBR-100 cells (endogenous transporter)
Assay type: cell-based

Sequence of SLC38A5 (Q8WUX1 whole entry): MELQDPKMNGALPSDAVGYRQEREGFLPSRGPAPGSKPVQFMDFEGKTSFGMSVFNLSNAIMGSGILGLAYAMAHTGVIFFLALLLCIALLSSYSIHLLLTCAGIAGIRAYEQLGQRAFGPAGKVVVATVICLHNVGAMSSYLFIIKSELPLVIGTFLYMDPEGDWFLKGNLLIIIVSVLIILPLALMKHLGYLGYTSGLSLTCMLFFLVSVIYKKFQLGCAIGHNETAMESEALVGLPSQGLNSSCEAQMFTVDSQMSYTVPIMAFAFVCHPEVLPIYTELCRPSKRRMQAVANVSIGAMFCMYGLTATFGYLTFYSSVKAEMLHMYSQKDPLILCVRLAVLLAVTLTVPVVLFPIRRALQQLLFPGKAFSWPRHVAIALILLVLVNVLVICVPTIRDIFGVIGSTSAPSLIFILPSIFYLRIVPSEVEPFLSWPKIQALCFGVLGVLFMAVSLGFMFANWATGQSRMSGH

O=C(Nc1ccc([N+](=O)[O-])cc1Cl)c1cc(Cl)ccc1O [niclosamide]
IC50: 1 to 2.5 µM
